From patent US20060078890A1, “Methods for identifying parkinson's disease therapeutics” (priority 2004, published 2006)
Entries after “also recorded” stand apart in the source; their conditions may differ. Ends that are not written are not given here.

Tests used:
[1] = test system: dopaminergic neurons in the substantia nigra; experiment: Progressive 6-OHDA lesioned rats, TH immunohistochemistry of striatum and substantia nigra; assay type: in vivo, rat; details: unilateral intrastriatal 6-OHDA, total dose 22.5 μg; up to 28 days
Description: Female Sprague Dawley rats (200-250 g, Charles River, Wilmington, Mass.) receive unilateral intrastriatal stereotaxic injections of 6-OHDA (Sigma, St. Louis, USA) using a 10 μl Hamilton syringe. Intramuscular injections of Acepromazine (3.3 mg/kg, PromAce, Fort Dodge, Iowa) and atropine sulfate (0.2 mg/kg, Phoenix Pharmaceuticals, St. Joseph, Mo.) is given 10 minutes before animals will be anesthetized with ketamine/xylazine (60 mg/kg and 3 mg/kg respectively, i.m.). A concentration of 3.0 μg/μl free base 6-OHDA dissolved in 0.2% ascorbic acid/saline (Sigma) is injected into 3 locations (2.5 μl/site, total dose 22.5 μg) in the right striatum at the following coordinates (calculated from bregma): site 1, AP+1.3, L−2.8, DV−4.5, IB−2.3; site 2, AP+0.2, L−3.0, DV−5.0, IB−2.3; site 3, AP−0.6, L−4.0, DV−5.5, IB−2.3 mm.

[2] = test system: PC12-αSyn cells; experiment: MPP+ toxicity in α-synuclein overexpressing PC12 cells, cell death by LDH release; assay type: cell-based; details: for LDH release (cell death) induced by MPP+ toxicity; neuroprotective effect: PC12-αSyn cells pretreated for two hours prior to 1 mM MPP+ for 24 hours, increasing concentrations
Description: A PC12 cell line was transfected to express wild type human α-synuclein using the Tet-Off system (Clontech Laboratories, Palo Alto, Calif.). α-Synuclein expression was suppressed using 1 μg/mL doxycycline (Clontech) in culture media before expression is required. α-Synuclein expressing PC12 cells (PC12-αSyn) were grown in Dulbecco's modified Eagle's medium (DMEM) (Invitrogen, Calsbad, Calif.) supplemented with 10% heat-inactivated horse serum, 5% heat-inactivated fetal calf serum (Hyclone, Logan, Utah), 4 mM L-glutamine, streptomycin, and penicillin G (Fisher, Pittsburgh, Pa.). Cells were maintained at 37° C., in 5% CO2 humid atmosphere.
The effects of various neuroprotective agents were examined in the PC12-αSyn cell line. To determine MPP^+ neurotoxicity in α-synuclein- and naïve PC12 cells, cell death was measured by LDH release assays.
(§1) Cell death will be assessed by quantifying intra- and extracellular lactate dehydrogenase (LDH). The ratio between the amount of LDH released and the amount remaining in the cells produces a measure of cell death. [formula]
(§2) A sample of the medium will be the extracellular LDH sample. Cells were washed with PBS and extracted in cell lysis buffer (50 mM Tris pH 8.0, 150 mM NaCl, 5 mM EDTA, 1% Triton X-100, 10 μg/ml Aprotinin, 25 μg /ml Leupeptin, 10 μg/ml Pepstatin, 1 mM PMSF; all protease inhibitors purchased from Sigma Chemicals, St. Louis, Mo.). The cell homogenate were centrifuged at 4° C. for 3 minutes at 14,000 rpm. The supernatant were taken for intracellular LDH sample. LDH activity will be quantified using an LDH assay kit (Roche, Indianapolis, Ind.).

[3] = test system: TH-positive/GIRK2-positive dopaminergic neurons of primary VM culture; experiment: MPP+ toxicity in primary ventral mesencephalic (VM) culture, stereological count of TH-positive/GIRK2-positive neurons; assay type: cell-based, rat; details: for protective effect against MPP+ toxicity on GIRK2-positive/TH-positive neurons: pretreated 2 hours prior to 10 μM MPP+
Description: VMDA cultures were obtained from E15 Sprague-Dawley rat (Charles River, Mass.) ventral mesencephalon (VM). Tissue was mechanically dissociated with a pasteur pipette. The cells were resuspended in DMEM containing heat-inhibited horse serum (10%), glucose (6.0 mg/ml), penicillin, streptomycin, and 2 mM glutamine (Gibco). Cell suspensions containing 4×10^5 cells were plated on a coverslip in a 24-well plate, precoated with a 1:500 diluted solution of polyornithine and fibronectin in 50 mM sodium borate (pH 7.4) overnight.
These cultures contained a mixed cell population having approximately 40% of TH-positive neurons at 5 days in vitro (DIV) with both A9- and A10-like dopaminergic neurons (FIG. 4A). […] The cultures were treated with MPP^+ at day 5 for 48 hours using concentrations ranging from 0.1 to 10 μM. Cells were fixed with paraformaldehyde for immunostaining of TH and GIRK2 48 hours after MPP^+ treatment.
The cultures were pretreated with the polypeptide factors 2 hours prior to 10 μM MPP^+ treatment.
Routine indirect immunofluorescence was performed on 4% paraformaldehyde fixed VM culture. The fixed cells were incubated in a blocking solution consisting of 10% normal donkey serum (Jackson Immuno Research Laboratories Inc, West Grove, Pa.) and 0.1% Triton X-100 (Sigma, St. Louis, Mo.) in 0.1M phosphate buffered saline (PBS) for 1 hour at room temperature before transferring to the primary antibody solution. The primary antibodies were diluted in blocking solution and the cells were incubated overnight at 4° C. The primary antibodies used were raised against tyrosine hydroxylase (sheep anti-TH, 1:300, Pel-Freez Biologicals, Rogers, Ak.) and GIRK2 (rabbit; 1:80, Alomone Laboratories, Jerusalem, Israel). The cells were rinsed three times in 0.1 M PBS for five minutes each before the application of the secondary antibody solution for one hour at room temperature. The secondary antibodies were diluted in 10% normal donkey serum in 0.1M PBS. The secondary antibodies were conjugated to spectrally distinct fluorescent dyes to facilitate color separation (Alexa Fluor 488 conjugated donkey anti-sheep and Alexa Fluor 594 conjugated donkey anti-rabbit, Molecular Probes, Eugene, Oreg.). After rinsing in triplicate for ten minutes each in 0.1 M PBS, the cells were counterstained with 0.0005% Hoechst 33342 (Molecular Probes) in 0.1M Tris buffered saline. The coverslips containing the fixed cells were then rinsed in 0.1M PBS followed by distilled water and mounted onto slides using an aqueous mountant (Gel/Mount, Biømeda Corp., Calif.). Control coverslips immunostained without primary antibody were used to assess specificity of the technique.
Design based stereology was performed by counters blinded to experimental groups on the stained coverslips using an integrated Axioskop 2 microscope (Carl Zeiss, Thornwood, N.Y.) and Stereoinvestigator image capture equipment and software (MicroBrightField, Williston, Vt.). A contour was drawn around each coverslip to identify the area of interest. A physical disector probe was utilized and counting frames were placed in a systematically random manner at approximately 125 sites per coverslip. The resultant coefficient of error for the stereological counts was used to assess precision (p<0.05).

[4] = test system: DAN cells; experiment: MPP+ toxicity in human dopaminergic neuron precursor (DAN) cells, LDH release; assay type: cell-based; details: for LDH release (cell death) in MPP+ treated DAN cells: pretreated for two hours prior to MPP+ (1 mM)
Text: DAN cells, which have been used to study neurodegeneration, can be used in the methods of this invention; they express multiple genes of Tables 4 and/or 5, and the expression of these genes following contact with a candidate compound can be measured. […] DAN cells are sensitive to the neurotoxin MPP^+.
as §1, §2

For NCCc1cc(O)c(O)cc1O [6-OHDA, 6-hydroxydopamine], the “loss of dopaminergic fibers in the striatum and neuronal cell bodies in the substantia nigra” value [1] was “progressive degeneration of dopaminergic neuronal cell bodies”.

For COC(=O)C[C@H](NC(=O)OC(C)(C)C)C(=O)CF [BAF, reference compound], the “MPP+ susceptibility (LDH release) after pretreatment with neuroprotective agent” value ([2]; PC12-αSyn cells pretreated) was “significantly decreased”.

In the case of C[n+]1ccc(-c2ccccc2)cc1 [MPP^+, 1-methyl-4-phenylpyridinium, reference compound], the “LDH release in PC12-αSyn cells compared with naive PC12 cells” value ([2]; intermediate concentration (2.5 mM) of MPP+) is reported as “significantly higher LDH release”, the “vulnerability of TH-positive/GIRK2-positive versus TH-positive/GIRK2-negative cells” value ([3]; primary VM culture, MPP+ 0.1 to 10 μM at day 5 for 48 hours) is reported as “more vulnerable” and the “dose of MPP+ giving maximal toxic insult (LDH release)” value ([4]; DAN cells) is reported as 2.5 mM.

With Fibroblast growth factor 1 [FGF1] the “LDH release (cell death) induced by MPP+ toxicity; protection by FGF1” value ([2]; PC12-αSyn cells, FIG. 2D) was “significantly reduced; also recorded: able to protect PC12-αSyn cells from MPP^+ in a dose-dependent manner”.

For “NT-3: neurotrophic factor known to have elevated expression in A10 dopaminergic neurons”, the “LDH release (cell death) induced by MPP+ toxicity; neuroprotective effect” value (shortened to “LDH release … neuroprotective effect”) [2] was “Significant dose-dependent reductions in LDH release; also recorded: able to protect PC12-α-Syn cells from MPP^+ neurotoxicity in a dose-dependent manner”, the “protective effect against MPP+ toxicity on GIRK2-positive/TH-positive neurons” value (“protective effect against MPP+ toxicity” below) ([3]; primary VM culture) was “significant protective effect” and the “survival of TH and TH/GIRK2 double-labeled neurons against MPP+ toxicity” value ([3]; primary VMDA culture, NT3 at 17 ng/ml, MPP+ 10 μM) was “protects the cells against MPP^+ toxicity”. The “LDH release (cell death) in MPP+ treated DAN cells” value [4] was “significant dose-dependent reduction in LDH release” and the “LDH release (cell death) in MPP+ treated DAN cells” value ([4]; listed as NT3) was “protective effect”.

For “Vasoactive intestinal peptide (HSDAVFTDNYTRLRKQMAVKKYLNSILN; ends and bridges not checked; UniProt P01282 125-152, looked up) [VIP, neuropeptide elevated in A10 dopaminergic neurons]”, the “LDH release … neuroprotective effect” value [2] was “Significant dose-dependent reductions in LDH release; also recorded: dose-dependent neuroprotective effects”, the “neuroprotective effect in primary VM culture (TH and GIRK2 immunostaining)” value ([3]; 48 hours after 10 μM MPP+, 10^−6 M VIP) was “neuroprotective effect” and the “protective effect against MPP+ toxicity” value ([3]; primary VM culture) was “significant protective effect”.

In the case of “calcitonin/calcitonin gene-related peptide alpha [CGRP]”, the “LDH release … neuroprotective effect” value [2] is reported as “Significant dose-dependent reductions in LDH release; also recorded: dose-dependent neuroprotective effects”.

In the case of “cholecysokinin-8 (DYMGWMDF; ends and bridges not checked; UniProt P06307 96-103, looked up) [CCK-8, neuropeptide elevated in A10 dopaminergic neurons]”, the “LDH release … neuroprotective effect” value [2] is reported as “Significant dose-dependent reductions in LDH release; also recorded: dose-dependent neuroprotective effects”.

With “gastrin releasing peptide (VPLPAGGGTVLTKMYPRGNHWAVGHLM; ends and bridges not checked; UniProt P07492 24-50, looked up) [GRP, neuropeptide elevated in A10 dopaminergic neurons]” the “LDH release … neuroprotective effect” value [2] was “Significant dose-dependent reductions in LDH release; also recorded: dose-dependent neuroprotective effects” and the “protective effect against MPP+ toxicity” value ([3]; primary VM culture) was “significant protective effect”.
